Source: patent US20140323593A1, “METHODS AND APPARATUS FOR THE CONTROL OF ADENOSINE TRIPHOSPHATE SYNTHASE ACTIVITY WITHIN LIVING ORGANISMS, AND CONDITIONING OF WATER-BASED FLUIDS AND SUBSTANCES USING MAGNETIC FIELD EXPOSURES OR THEIR WITHDRAWAL” (priority 2013, published 2014)
pIC50: −log10 of the molar value.

Legend:
leukemic cell K562 = test: average reductions in chromosome numbers (karyotype contraction) in K562; type: cell-based, human
Text: First, we observed that 5 different cancer cell lines representative of the most common human cancers display a reduction in their chromosome numbers when exposed to 60-Hz MFs (Appendix 1). Reductions in chromosome numbers result from metabolic restriction (Li et al., 2012), which can be caused by impaired ATPS function.
Fourth, Russian physicists (Semikhina and Kiselev, 1981) observed resonances for water at specific frequency-amplitude combinations that are broadened by the presence of even small levels of impurities. They detected one maximum at 156.2-Hz and 15.45 μT for 7° C. pure water (Semikhina et al, 1988). In our experiments compiling average chromosome losses over frequency in anoxic K562 (5% carbon dioxide and 37° C.) 6-day tests at 1 μT, a wide resonance was measured as follows: −3.6±0.79 at 50-Hz, −9.36±1.06 at 60-Hz, −12.71±1.82 at 120-Hz and −9.8±1.31 at 155-Hz. […] The ATPS resonance at […] we documented is indeed wider than that reported by Semikhina for pure water. […]
Our laboratory has detected ATPSI at all tested frequencies and at all MF intensities above 25 nT using measurements of karyotype contraction (see Appendix 1) in numerous cell lines: K562 and HEL (erythro-leukemias). […] In our experiments, ATPSI detected by karyotype contractions varied only weakly with field intensities between 25 nT and 5 μT, but probably cover the range of 10 nT to 879 μT. […]

[1] = tested on: 60 cancer cell lines maintained by the US National Cancer Institute (NCI-60); settings: mean over NCI-60 cell lines; read-out: IC50 (the concentration inhibiting proliferation rate by 50%), mean; cited from earlier work

Structure (SMILES)	average reductions in chromosome numbers (leukemic cell K562; K562, substance alone for 3 days, metformin 0.01 mg/l, resistin 40 ng/l)	average reductions in chromosome numbers (losses) with 1 μT added (leukemic cell K562; K562, 1 μT magnetic field added to metformin 0.01 mg/l or resistin 40 ng/l, 1 μT alone 7.5)	pIC50 [1]
CN(C)C(=N)N=C(N)N [Metformin]	9	11±0.34	
CC[C@H]1/C=C/C=C/C[C@@H](C)[C@H](O)[C@@](C)(O)C(=O)[C@@H](C)[C@H](O)[C@@H](C)C(=O)[C@@H](C)[C@H](O)[C@@H](C)/C=C/C(=O)O[C@@H]2[C@H](C)[C@H](CC1)O[C@]1(CC[C@H](C)[C@H](C[C@@H](C)O)O1)[C@H]2C [oligomycin]			6.52
